Assay results as given in ChEMBL document CHEMBL3797029, “Purinylpyridinylamino-based DFG-in/αC-helix-out B-Raf inhibitors: Applying mutant versus wild-type B-Raf selectivity indices for compound profiling” (Bioorg Med Chem, 2016).

What was measured:
[1] = biological target: T1, Serine/threonine-protein kinase B-raf (Homo sapiens, UniProt P15056, V600E); test: Inhibition of B-Raf V600E mutant in human A375 cells assessed as ERK phosphorylation preincubated for 1 hr by Western blot method; assay type: cell-based, A-375
T1 sequence (P15056 2-766 V600E limits assumed): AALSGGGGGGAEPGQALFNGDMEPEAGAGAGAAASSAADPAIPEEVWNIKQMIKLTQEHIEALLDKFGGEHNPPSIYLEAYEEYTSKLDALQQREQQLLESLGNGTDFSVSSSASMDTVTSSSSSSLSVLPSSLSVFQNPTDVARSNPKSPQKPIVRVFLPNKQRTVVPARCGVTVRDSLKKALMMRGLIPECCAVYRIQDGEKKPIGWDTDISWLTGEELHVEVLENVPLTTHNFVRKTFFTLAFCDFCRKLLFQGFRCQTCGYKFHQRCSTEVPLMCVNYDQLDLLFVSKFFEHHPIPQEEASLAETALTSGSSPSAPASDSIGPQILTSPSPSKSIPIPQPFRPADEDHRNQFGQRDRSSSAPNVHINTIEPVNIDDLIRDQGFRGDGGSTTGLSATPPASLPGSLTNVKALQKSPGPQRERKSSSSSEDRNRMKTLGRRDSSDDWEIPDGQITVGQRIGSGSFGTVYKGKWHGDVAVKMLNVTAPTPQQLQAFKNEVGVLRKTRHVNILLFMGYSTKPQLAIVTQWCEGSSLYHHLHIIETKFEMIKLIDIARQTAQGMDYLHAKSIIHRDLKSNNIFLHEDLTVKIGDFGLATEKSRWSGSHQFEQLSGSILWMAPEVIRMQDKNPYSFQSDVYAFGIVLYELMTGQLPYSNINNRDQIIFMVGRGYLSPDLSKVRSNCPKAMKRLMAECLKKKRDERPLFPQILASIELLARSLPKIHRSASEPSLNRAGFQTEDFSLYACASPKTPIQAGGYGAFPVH

[2] = biological target: T1, Serine/threonine-protein kinase B-raf; test: Inhibition of B-Raf V600E mutant (unknown origin) assessed as MEK1 phosphorylation using MEK1-Avitag as substrate after 1 hr by HTRF assay
[3] = biological target: T2, Serine/threonine-protein kinase B-raf (Homo sapiens, UniProt P15056); test: Inhibition of wild type B-Raf in human MIAPaCa2 cells assessed as reduction in ERK phosphorylation preincubated for 1 hr by Western blot method; assay type: cell-based, MIA PaCa-2
T2 sequence (P15056 whole entry): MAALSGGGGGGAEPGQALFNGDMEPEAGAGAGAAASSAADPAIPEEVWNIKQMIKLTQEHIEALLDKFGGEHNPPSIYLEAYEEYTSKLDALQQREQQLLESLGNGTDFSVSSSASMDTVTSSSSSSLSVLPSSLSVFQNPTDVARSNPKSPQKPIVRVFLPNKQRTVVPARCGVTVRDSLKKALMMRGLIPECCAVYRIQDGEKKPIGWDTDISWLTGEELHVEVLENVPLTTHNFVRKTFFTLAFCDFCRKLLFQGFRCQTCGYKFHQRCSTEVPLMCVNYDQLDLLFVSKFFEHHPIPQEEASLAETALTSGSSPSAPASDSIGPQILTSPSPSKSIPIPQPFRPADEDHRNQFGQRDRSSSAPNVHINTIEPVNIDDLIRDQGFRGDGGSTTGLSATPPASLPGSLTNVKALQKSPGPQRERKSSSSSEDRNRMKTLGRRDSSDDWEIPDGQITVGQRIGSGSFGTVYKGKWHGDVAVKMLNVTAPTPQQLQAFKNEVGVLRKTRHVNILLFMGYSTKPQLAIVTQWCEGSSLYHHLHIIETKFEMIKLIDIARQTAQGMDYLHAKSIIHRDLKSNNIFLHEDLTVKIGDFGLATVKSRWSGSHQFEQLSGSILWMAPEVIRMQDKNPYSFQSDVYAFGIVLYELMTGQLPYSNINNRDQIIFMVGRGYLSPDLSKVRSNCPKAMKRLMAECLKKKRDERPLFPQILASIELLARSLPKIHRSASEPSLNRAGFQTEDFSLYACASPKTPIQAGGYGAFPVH

[4] = biological target: T2, Serine/threonine-protein kinase B-raf; test: Inhibition of wild type B-Raf (unknown origin) assessed as MEK1 phosphorylation using MEK1-Avitag as substrate after 1 hr by HTRF assay
MIA PaCa-2 = test: Selectivity index, ratio of EC50 for wild type B-Raf in human MIAPaCa2 cells to IC50 for B-Raf V600E mutant in human A375 cells; assay type: cell-based

| Compound | IC50 [1] [nM] | IC50 [2] [nM] | EC50 [3] [nM] | IC50 [4] [nM] | Ratio (MIA PaCa-2) |
| --- | --- | --- | --- | --- | --- |
| O=S(=O)(Nc1ccc(F)c(Nc2ncccc2-c2ncnc3[nH]cnc23)c1F)c1ccc(F)cc1 | 242 | 36 | 5650 | 83 | 23 |
| O=S(=O)(Nc1ccc(F)c(Nc2ncccc2-c2ncnc3[nH]cnc23)c1F)N1CCNCC1 | 1000 | > 1000 | – | > 1000 | – |
| O=S(=O)(Nc1ccc(F)c(Nc2ncccc2-c2ncnc3[nH]cnc23)c1F)N1CC[C@H](O)C1 | 201 | 9 | – | 122 | – |
| CC(C)S(=O)(=O)Nc1ccc(F)c(Nc2ncccc2-c2ncnc3[nH]cnc23)c1F | 45 | 14 | 1540 | 66 | 34 |
| O=S(=O)(Nc1ccc(F)c(Nc2ncccc2-c2ncnc3[nH]cnc23)c1F)N1CCOCC1 | 293 | 62 | 3580 | 102 | 12 |
| O=S(=O)(Cc1ccccc1)Nc1ccc(F)c(Nc2ncccc2-c2ncnc3[nH]cnc23)c1F | > 1000 | 186 | 5080 | 111 | – |
| CCN(C)S(=O)(=O)Nc1ccc(F)c(Nc2ncccc2-c2ncnc3[nH]cnc23)c1F | 87 | 22 | 1780 | 157 | 20 |
| O=S(=O)(Nc1ccc(F)c(Nc2ncccc2-c2ncnc3[nH]cnc23)c1F)N1CCCC1 | 44 | 2 | 2070 | 31 | 47 |
| CCCC(C)S(=O)(=O)Nc1ccc(F)c(Nc2ncccc2-c2ncnc3[nH]cnc23)c1F (stereo not given) | 130 | 18 | 8090 | 112 | 62 |
| O=S(=O)(Nc1ccc(F)c(Nc2ncccc2-c2ncnc3[nH]cnc23)c1F)c1ccccn1 | 177 | 21 | 7940 | 41 | 45 |
| O=S(=O)(Nc1ccc(F)c(Nc2ncccc2-c2ncnc3[nH]cnc23)c1F)C1CCC1 | 41 | 4 | 1790 | 46 | 44 |
| O=S(=O)(Nc1ccc(F)c(Nc2ncccc2-c2ncnc3[nH]cnc23)c1F)N1CC[C@@H](O)C1 | 233 | 16 | 7190 | 68 | 31 |
| O=S(=O)(Nc1ccc(F)c(Nc2ncccc2-c2ncnc3[nH]cnc23)c1F)C1CCOCC1 | 356 | 31 | – | 179 | – |
| CC(C)(C)CS(=O)(=O)Nc1ccc(F)c(Nc2ncccc2-c2ncnc3[nH]cnc23)c1F | 63 | 6 | 202 | 5 | 3 |
| O=S(=O)(CC(F)(F)F)Nc1ccc(F)c(Nc2ncccc2-c2ncnc3[nH]cnc23)c1F | 40 | 3 | 713 | 10 | 18 |
| O=S(=O)(Nc1ccc(F)c(Nc2ncccc2-c2ncnc3[nH]cnc23)c1F)C1CC1 | 173 | 41 | 2070 | 132 | 12 |
| CS(=O)(=O)Nc1ccc(F)c(Nc2ncccc2-c2ncnc3[nH]cnc23)c1F | 356 | 360 | 6690 | 412 | 19 |
| CCN(CC)S(=O)(=O)Nc1ccc(F)c(Nc2ncccc2-c2ncnc3[nH]cnc23)c1F | 603 | 57 | 9910 | 165 | 16 |
| Cn1cc(S(=O)(=O)Nc2ccc(F)c(Nc3ncccc3-c3ncnc4[nH]cnc34)c2F)cn1 | 710 | 8 | 2220 | 19 | 3 |
| Cc1n[nH]c(C)c1S(=O)(=O)Nc1ccc(F)c(Nc2ncccc2-c2ncnc3[nH]cnc23)c1F | > 1000 | 216 | – | – | – |
| O=S(=O)(Nc1ccc(F)c(Nc2ncccc2-c2ncnc3[nH]cnc23)c1F)N1CCCCC1 | 65 | 15 | 1220 | 38 | 19 |

Continued by falling IC50 [1], values first:

| IC50 [1] [nM] | IC50 [2] [nM] | EC50 [3] [nM] | IC50 [4] [nM] | Compound | Ratio (MIA PaCa-2) |
| --- | --- | --- | --- | --- | --- |
| 40 | 18 | 4370 | 51 | O=S(=O)(Nc1ccc(F)c(Nc2ncccc2-c2ncnc3[nH]cnc23)c1F)C1CCCCC1 | 109 |
| 33 | 8 | 2140 | 26 | O=S(=O)(CC1CC1)Nc1ccc(F)c(Nc2ncccc2-c2ncnc3[nH]cnc23)c1F | 65 |
| 31 | 1 | 783 | 2 | O=S(=O)(Nc1ccc(F)c(Nc2ncccc2-c2ncnc3[nH]cnc23)c1F)c1nccs1 | 25 |
| 31 | 5 | 1480 | 26 | O=S(=O)(Nc1ccc(F)c(Nc2ncccc2-c2ncnc3[nH]cnc23)c1F)C1CCOC1 (stereo not given) | 48 |
| 28 | 7 | 2290 | 17 | O=S(=O)(Nc1ccc(F)c(Nc2ncccc2-c2ncnc3[nH]cnc23)c1F)c1ccccc1 | 82 |
| 27 | 7 | 778 | 38 | CCC(C)S(=O)(=O)Nc1ccc(F)c(Nc2ncccc2-c2ncnc3[nH]cnc23)c1F (stereo not given) | 29 |
| 24 | 9 | 936 | 12 | CCCS(=O)(=O)Nc1ccc(F)c(Nc2ncccc2-c2ncnc3[nH]cnc23)c1F | 39 |
| 17 | 6 | 1450 | 16 | CC(C)CS(=O)(=O)Nc1ccc(F)c(Nc2ncccc2-c2ncnc3[nH]cnc23)c1F | 85 |
| 15 | 3 | 1510 | 4 | O=S(=O)(Nc1ccc(F)c(Nc2ncccc2-c2ncnc3[nH]cnc23)c1F)c1cccc(F)c1 | 101 |
| 12 | 3 | 873 | 10 | O=S(=O)(Nc1ccc(F)c(Nc2ncccc2-c2ncnc3[nH]cnc23)c1F)c1ccccc1F | 73 |
| 11 | 2 | 1800 | 21 | O=S(=O)(Nc1ccc(F)c(Nc2ncccc2-c2ncnc3[nH]cnc23)c1F)C1CCCC1 | 164 |
| 10 | 1 | 786 | 1 | O=S(=O)(Nc1ccc(F)c(Nc2ncccc2-c2ncnc3[nH]cnc23)c1F)c1cccnc1 | 79 |
| 7 | 1 | 402 | 0.5 | O=S(=O)(Nc1ccc(F)c(Nc2ncccc2-c2ncnc3[nH]cnc23)c1F)c1cccs1 | 57 |
| 6 | 0.2 | 807 | 1 | O=S(=O)(Nc1ccc(F)c(Nc2ncccc2-c2ncnc3[nH]cnc23)c1F)c1cn[nH]c1 | 135 |
